Assay results reported in patent US20150216978A1, “MODULATORS OF DRUGS USING CARBOXYLESTERASE SELECTIVE INHIBITORS” (Rhode Island Board of Education, State of Rhode Island and …, priority 2013, published 2015).

Key:
mouse ces2e = biological target: T1, mouse ces2e (Mus musculus, UniProt Q8BK48); conditions: 1 nM Orlistat; cited from earlier work
T1 sequence (Q8BK48 27-559): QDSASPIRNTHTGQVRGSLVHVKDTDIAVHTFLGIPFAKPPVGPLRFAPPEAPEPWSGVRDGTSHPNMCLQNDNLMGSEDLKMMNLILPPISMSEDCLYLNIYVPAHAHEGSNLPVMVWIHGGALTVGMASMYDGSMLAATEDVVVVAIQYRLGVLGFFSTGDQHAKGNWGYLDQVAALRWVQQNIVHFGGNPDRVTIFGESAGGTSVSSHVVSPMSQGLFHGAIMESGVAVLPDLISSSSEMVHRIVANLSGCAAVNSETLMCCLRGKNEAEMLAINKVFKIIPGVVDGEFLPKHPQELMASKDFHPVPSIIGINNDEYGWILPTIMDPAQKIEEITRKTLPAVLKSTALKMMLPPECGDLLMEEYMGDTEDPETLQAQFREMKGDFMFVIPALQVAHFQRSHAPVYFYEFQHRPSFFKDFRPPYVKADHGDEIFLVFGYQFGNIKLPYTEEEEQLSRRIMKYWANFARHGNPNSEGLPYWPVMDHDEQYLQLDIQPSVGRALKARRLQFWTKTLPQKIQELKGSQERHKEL

ces1d = biological target: T2, ces1d (Mus musculus, UniProt Q8VCT4); conditions: 1 nM Orlistat; cited from earlier work
T2 sequence (Q8VCT4 19-565): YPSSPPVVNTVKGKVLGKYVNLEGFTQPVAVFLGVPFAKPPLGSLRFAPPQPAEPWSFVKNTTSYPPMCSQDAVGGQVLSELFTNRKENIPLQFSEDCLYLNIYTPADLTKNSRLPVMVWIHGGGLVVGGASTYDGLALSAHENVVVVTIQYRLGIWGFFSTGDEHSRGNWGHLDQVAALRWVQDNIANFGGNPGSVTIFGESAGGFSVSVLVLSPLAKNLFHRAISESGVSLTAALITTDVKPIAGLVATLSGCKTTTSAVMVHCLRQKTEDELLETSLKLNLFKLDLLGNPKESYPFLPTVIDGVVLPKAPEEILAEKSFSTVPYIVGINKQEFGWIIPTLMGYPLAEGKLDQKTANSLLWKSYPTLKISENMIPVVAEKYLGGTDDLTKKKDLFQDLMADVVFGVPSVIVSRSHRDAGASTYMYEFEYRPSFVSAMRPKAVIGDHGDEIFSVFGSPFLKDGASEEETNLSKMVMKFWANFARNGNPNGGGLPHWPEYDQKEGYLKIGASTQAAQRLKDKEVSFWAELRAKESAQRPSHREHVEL

CES1 = biological target: T3, CES1 (Homo sapiens, UniProt P23141); experiment: Inhibition of carboxylesterases by Orlistat (human CES1); assay type: biochemical
T3 sequence (P23141 18-567): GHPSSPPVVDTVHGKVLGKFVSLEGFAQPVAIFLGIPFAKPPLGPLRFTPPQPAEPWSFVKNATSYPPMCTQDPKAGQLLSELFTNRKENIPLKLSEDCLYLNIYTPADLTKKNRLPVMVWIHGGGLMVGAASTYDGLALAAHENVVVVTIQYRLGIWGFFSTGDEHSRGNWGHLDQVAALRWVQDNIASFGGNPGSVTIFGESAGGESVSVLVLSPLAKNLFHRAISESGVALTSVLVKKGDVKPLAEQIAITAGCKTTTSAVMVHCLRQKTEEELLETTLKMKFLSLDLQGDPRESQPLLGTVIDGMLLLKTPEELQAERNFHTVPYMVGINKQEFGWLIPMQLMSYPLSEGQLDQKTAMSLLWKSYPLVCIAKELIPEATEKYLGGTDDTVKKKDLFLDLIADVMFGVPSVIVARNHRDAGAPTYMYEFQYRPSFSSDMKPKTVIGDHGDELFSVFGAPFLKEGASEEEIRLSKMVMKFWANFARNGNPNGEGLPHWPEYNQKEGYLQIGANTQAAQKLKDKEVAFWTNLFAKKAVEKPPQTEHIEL
Description: (§1) For a decade, Orlistat has been the most used anti-obesity drug. However, the use of Orlistat has been associated with fatal liver and kidney toxicity. This type of toxicity is rare, pointing to a compound effect of multiple factors. Specifically, we assumed that orlistat alters the activity of detoxification enzymes, which may have fatal effects when these factors are perfectly aligned. To shed light on this possibility, we tested Orlistat for the inhibition of carboxylesterases, a class of hydrolytic enzymes with known detoxication significance. […] Orlistat at 1 nM inhibited CES2 by 75%, but no inhibition was detected with CES1. […] In a striking contrast, rat ces1d and ces1e, two major forms of liver CESs, were resistant to Orlistat (Biochem Pharmacol. 2013, 85:439-447).

CES2 [1] = biological target: T4, CES2 (Homo sapiens, UniProt O00748); experiment: Inhibition of carboxylesterases by Orlistat (human CES2); assay type: biochemical; conditions: Orlistat at 1 nM
T4 sequence (O00748 27-559): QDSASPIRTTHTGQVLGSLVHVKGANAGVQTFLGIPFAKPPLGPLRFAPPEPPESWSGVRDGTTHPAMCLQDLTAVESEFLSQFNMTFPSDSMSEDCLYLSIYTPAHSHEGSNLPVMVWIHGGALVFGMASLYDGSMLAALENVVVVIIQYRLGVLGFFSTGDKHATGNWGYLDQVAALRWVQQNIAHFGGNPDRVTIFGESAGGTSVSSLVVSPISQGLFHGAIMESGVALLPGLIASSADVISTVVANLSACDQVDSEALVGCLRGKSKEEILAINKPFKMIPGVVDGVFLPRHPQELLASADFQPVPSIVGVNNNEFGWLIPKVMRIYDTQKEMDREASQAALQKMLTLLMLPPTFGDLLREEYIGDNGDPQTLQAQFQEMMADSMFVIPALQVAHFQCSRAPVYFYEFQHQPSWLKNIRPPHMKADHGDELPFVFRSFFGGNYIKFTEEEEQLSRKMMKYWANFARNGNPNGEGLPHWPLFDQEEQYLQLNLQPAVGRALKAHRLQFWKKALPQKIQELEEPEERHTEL
Description: as §1

rat ces1e = biological target: T5, rat ces1e (Rattus norvegicus, UniProt Q63108); conditions: major form of rat liver CES; cited from earlier work
T5 sequence (Q63108 19-561): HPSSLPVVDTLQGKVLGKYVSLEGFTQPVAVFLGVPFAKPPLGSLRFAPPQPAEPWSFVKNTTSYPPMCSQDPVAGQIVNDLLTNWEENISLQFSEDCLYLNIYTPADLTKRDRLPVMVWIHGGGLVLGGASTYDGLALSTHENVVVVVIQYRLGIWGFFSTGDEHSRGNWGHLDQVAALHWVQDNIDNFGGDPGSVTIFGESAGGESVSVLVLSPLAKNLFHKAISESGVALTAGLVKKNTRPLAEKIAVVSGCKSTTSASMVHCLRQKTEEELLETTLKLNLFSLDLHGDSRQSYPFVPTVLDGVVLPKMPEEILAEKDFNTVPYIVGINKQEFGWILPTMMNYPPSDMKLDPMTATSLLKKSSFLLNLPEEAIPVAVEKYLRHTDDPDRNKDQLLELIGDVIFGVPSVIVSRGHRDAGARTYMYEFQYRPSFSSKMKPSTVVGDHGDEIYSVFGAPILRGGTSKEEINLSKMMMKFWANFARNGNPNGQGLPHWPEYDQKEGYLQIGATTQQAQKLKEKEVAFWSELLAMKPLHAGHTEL

CES2 [2] = biological target: T4, CES2; experiment: Irreversibility: human liver microsomes incubated with Orlistat, native gel electrophoresis, activity staining (CES2); assay type: biochemical; set-up: from tissue; host or cells: human liver microsomes
Protocol: It was tested whether the inhibition involves covalent interactions between Orlistat and CES2. Microsomes from human livers (CES1 and CES2) were incubated with Orlistat, resolved by native gel electrophoresis to remove free Orlistat, and stained for the remaining activity.

mouse ces2c = biological target: T6, mouse ces2c (Mus musculus, UniProt Q91WG0); conditions: 1 nM Orlistat; cited from earlier work
T6 sequence (Q91WG0 27-561): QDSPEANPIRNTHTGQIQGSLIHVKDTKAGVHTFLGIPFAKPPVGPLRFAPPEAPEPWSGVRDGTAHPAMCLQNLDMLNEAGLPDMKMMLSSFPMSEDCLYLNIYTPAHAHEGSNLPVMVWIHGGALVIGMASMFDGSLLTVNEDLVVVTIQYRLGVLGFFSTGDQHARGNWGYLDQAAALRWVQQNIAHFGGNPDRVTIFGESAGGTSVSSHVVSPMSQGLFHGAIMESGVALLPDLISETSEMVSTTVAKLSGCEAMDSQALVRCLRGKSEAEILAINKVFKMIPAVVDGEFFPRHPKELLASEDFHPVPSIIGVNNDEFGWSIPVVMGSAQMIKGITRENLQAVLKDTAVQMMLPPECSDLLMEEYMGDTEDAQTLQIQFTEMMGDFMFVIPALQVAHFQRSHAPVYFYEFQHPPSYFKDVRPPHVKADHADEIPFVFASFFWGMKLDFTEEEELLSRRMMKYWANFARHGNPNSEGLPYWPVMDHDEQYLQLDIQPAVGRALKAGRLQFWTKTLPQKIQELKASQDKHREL

CES2 [3] = biological target: T4, CES2; experiment: Cellular inhibition of CES2 in LS180 cells, lysates tested by native gel electrophoresis and Western blotting; assay type: cell-based; set-up: endogenous in cells; host or cells: LS180
Protocol: The cellular activity of Orlistat was examined on the inhibition of CES2 within cells. To test this possibility, LS180 cells (a colon adenocarcinoma line) were treated with orlistat for 1-24 h, washed extensively to remove free Orlistat and lysed by sonication. The lysates were then tested for the hydrolytic activity by native gel electrophoresis. […] We next tested whether the less inhibition by prolonged incubation was due to increased expression of CES2. Western blotting was performed with the same gel stained for activity. As predicated, prolonged incubation increased CES2 expression (FIG. 3B). These findings established that regeneration of CES2 requires new synthesis of CES2.

cells = experiment: Cell viability of cells treated with PPD in the presence or absence of Orlistat; assay type: cell-based
Protocol: To shed light on the clinical consequences of inhibited CES2 by Orlistat, cells were treated with PPD in the presence or absence of Orlistat. PPD is a carbamate anticancer prodrug and activated preferentially by CES2 hydrolysis of the ester side chain of the carbamate (20, 21). […] This finding was confirmed in CES2 induced condition (Brit J Pharmacol. 2013, 168:1989-1999).

rat ces1d = biological target: T7, rat ces1d (Rattus norvegicus, UniProt P16303); conditions: major form of rat liver CES; cited from earlier work
T7 sequence (P16303 19-565): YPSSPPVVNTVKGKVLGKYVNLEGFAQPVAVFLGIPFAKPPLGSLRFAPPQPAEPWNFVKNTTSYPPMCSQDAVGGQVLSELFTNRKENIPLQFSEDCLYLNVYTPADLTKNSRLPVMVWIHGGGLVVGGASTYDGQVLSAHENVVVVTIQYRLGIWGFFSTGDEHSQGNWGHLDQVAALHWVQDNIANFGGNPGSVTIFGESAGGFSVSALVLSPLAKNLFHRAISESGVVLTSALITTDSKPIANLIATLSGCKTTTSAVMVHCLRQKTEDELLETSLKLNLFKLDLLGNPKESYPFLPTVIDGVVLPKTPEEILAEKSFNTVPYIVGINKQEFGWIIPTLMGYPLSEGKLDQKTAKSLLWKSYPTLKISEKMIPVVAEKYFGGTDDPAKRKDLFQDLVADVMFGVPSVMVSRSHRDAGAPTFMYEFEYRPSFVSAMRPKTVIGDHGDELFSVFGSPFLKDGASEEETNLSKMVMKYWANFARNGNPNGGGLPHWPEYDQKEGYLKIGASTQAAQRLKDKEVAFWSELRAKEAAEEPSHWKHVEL

For CCCCCCCCCCC[C@@H](C[C@@H]1OC(=O)[C@H]1CCCCCC)OC(=O)[C@H](CC(C)C)NC=O [Orlistat], the “inhibition of mouse ces2e” value (mouse ces2e) is given as 55%, the “inhibition of ces1d” value (ces1d) is given as 12% and the inhibition at 0.1 µM (CES1; 100 nM orlistat) is given as ~30%. The “inhibition of CES1” value (CES1; Orlistat at 1 nM) was “no inhibition”, the “inhibition of CES2” value (CES2 [1]) was 75% and the “sensitivity of rat ces1e to Orlistat” value (rat ces1e) was “resistant”. For the same compound, the “remaining activity of CES2 upon incubation with Orlistat” value (CES2 [2]; human liver microsomes, free Orlistat removed by native gel electrophoresis) was “profoundly reduced”, the “type of inhibition of CES2” value (CES2 [2]; inhibition persists after removal of Orlistat by electrophoresis) was “irreversible inhibitor” and the “inhibition of mouse ces2c” value (mouse ces2c) was 90%. The “inhibition of CES2 activity in cells” value (CES2 [3]; 1-h incubation) was ~80%, the “CES2 expression (Western blotting)” value (CES2 [3]; prolonged incubation 24 h) was “increased” and the “inhibition of CES2 activity in cells” value (CES2 [3]; prolonged incubation 24 h) was “less effective”. For the same compound, the “inhibition of CES2 activity in cells” value (CES2 [3]; treated for 6 h) was “Comparable inhibition”, the “reduction of cell viability by PPD (carbamate) in the presence of Orlistat” value (cells; PPD plus Orlistat) was “significantly reversed” and the “reduction of the cell killing activity of PPD” value (cells; pretreatment with Orlistat) was ≤ 60%. For the same compound, the cell viability (cells; treatment with substance alone) was “no changes” and the “sensitivity of rat ces1d to Orlistat” value (rat ces1d) was “resistant”.
